Experimental data published in patent publication US20190241535A1, “3-SUBSTITUTED CARBONYL-NAPHTHO[2,3-B]FURANE DERIVATIVE OR PHARMACEUTICALLY ACCEPTABLE SALT THEREOF” (Boston Biomedical, Inc., priority 2014, published 2019).
In brackets after ≈: the same amount, converted by molar mass. Where two headings read alike, the source gives them in different places.

Experiments:
HCT-116 cell = experiment: Test 2: inhibition of forming cancer cell sphere (Sphere IC50); assay type: cell-based; conditions: Homo sapiens, 96 h, ultra-low attachment plate, serum-free sphere medium, 4 days, CellTiter-Glo
Experimental: (§1) HCT-116 cell, HT-29 cell, and FaDu cell were obtained from the American Type Culture Collection (ATCC). HCT-116 cell and HT-29 cell were cultivated at 37° C. in the presence of 5% CO2 using McCoy's 5a medium containing 10% fetal bovine serum (FBS), and 1% penicillin/streptomycin; and FaDu cell was cultivated at 37° C. in the presence of 5% CO2 using MEM containing 10% FBS, 1% non-essential amino acid, 1% sodium pyruvate, and 1% penicillin/streptomycin. Each of HCT-116 cell, HT-29 cell, and FaDu cell was seeded on 384 Wells Black Clear Bottom Ultra-Low Attachment Microplate (Corning Cat. No. 3827) in 350-800 cells/well, with DMEM/F12 medium containing 2% B27 supplement (GIBCO), 20 ng/mL epidermal growth factor (EGF) (peprotech), 10 ng/mL basic fibroblast growth factor (bFGF) (peprotech), 5 μg/mL insulin (Sigma), and 1% penicillin/streptomycin. Each test sample was added thereto to adjust the final concentration thereof in DMSO to 0.1% and the test wells were incubated for 4 days. And then, the viable cell count of each sample was measured using CellTiter-Glo® Luminescent Cell Viability Assay (Promega), and the concentration to inhibit the cell growth in each test sample by 50% was calculated (Sphere IC50 Value;μM).

FaDu cell = experiment: as above; assay type: cell-based; conditions: Homo sapiens, 96 h, ultra-low attachment plate, serum-free sphere medium, 4 days, CellTiter-Glo
Experimental: as §1

HT-29 cell = experiment: as above; assay type: cell-based; conditions: Homo sapiens, 96 h, ultra-low attachment plate, serum-free sphere medium, 4 days, CellTiter-Glo
Experimental: as §1

Test 3: solubility test = assay type: physicochemical; conditions: kinetic from dmso stock, 1% DMSO, HPLC
Experimental: Each 15 μL of each test sample (10 mM DMSO solution) was dispensed into 4 Utubes on a 96 well rack. Then, each sample was evaporated to dryness with a rotary evaporator. 3 μL of DMSO was added to each dried sample to be re-dissolved. And, 300 μL of pH 7.4 buffer was added to the 2 wells and 300 μL of pH 1.2 buffer was added to the other 2 wells. After shaking each sample solution, the samples were still stood. Then, each sample solution was centrifuged to remove insoluble matter, and 100 μL of the supernatant was picked up on a 96 well plate. Separately, 2 μL of each test sample (10 mM DMSO solution) was dispensed on a 96 well plate, and diluted with 198 μL of 50% acetonitrile to prepare each 100 μM standard solution. Further, the 100 μM standard solution was diluted with 50% acetonitrile to prepare each 10 μM standard solution. The above test samples for the solubility test and the two kinds of the standard samples were analyzed with a HPLC. The solubility of each test sample was calculated as an area ratio per the standard solutions.

[1] = Test 4: concentration of the test compounds in plasma; assay type: in vivo; conditions: mouse, po, 25 mg/kg, 25 mg/kg po
Experimental: (§2) Administration method: The test compound scaled to a given weight was suspended in 0.5% methylcellulose to prepare an administration solution. A mouse was weighed, and the administration solution was orally administered to the mouse depending on its weight.
Blood sampling method: EDAT-2K was added to a blood collection tube, into which the blood of the mouse was sampled. The sampled blood was centrifuged to give plasma.
Preparation of standard solution: The test compound scaled to 1 mg was dissolved in 10 mL of MeOH in a volumetric flask to prepare a 100 μg/mL standard solution.
Measure of the concentration in plasma: The 100 μg/mL standard solution was diluted with MeOH to prepare a sample for calibration curve which has the desired concentration. To 50 μL of the sample for calibration curve was added 50 μL of the blank plasma to prepare a sample for plasma calibration curve. To 50 μL of the plasma sample treated with the test compound was added 50 μL of MeOH to prepare a sample for analyzing plasma. To each 100 μL of the sample for plasma calibration curve and the sample for analyzing plasma was added 150 μL of MeOH containing an internal standard respectively. The internal standard used herein was bezafibrate, the concentration of which was 200 nM. Each 5 μL of the samples was analyzed with an LC-MS. The calibration curve was prepared based on the peak ratio of MS peak area of the test sample per that of the internal standard, and the concentration of the sample for plasma calibration curve. The concentration of the test compound in each sample was calculated based on the peak ratio of each sample, and the calibration curve.

[2] = Test 5: concentration of the test compounds in tumor; assay type: in vivo; conditions: mouse, po, 25 mg/kg, 25 mg/kg po
Experimental: as §2
The picked tumor was put into a tube, and 1 mL of MeOH containing an internal standard was added to the tube. The internal standard used herein was bezafibrate, the concentration of which was 200 nM. The mixture was homogenized with an electric homogenizer to prepare a tumor extract. And, a blank tumor extract was prepared with a tumor derived from an un-treated animal in the same manner. The 100 μg/mL standard solution was diluted with MeOH to prepare a sample for calibration curve which has the desired concentration. To 50 μL of the sample for calibration curve was added 50 μL of the blank tumor extract to prepare a sample for tumor calibration curve. To 50 μL of the tumor extract was added 50 μL of MeOH to prepare a sample for analyzing tumor. Each 5 μL of the samples was analyzed with an LC-MS. The calibration curve was prepared based on the peak ratio of MS peak area of the test sample per that of the internal standard, and the concentration of the sample for tumor calibration curve. The concentration/weight of the test compound in each sample was calculated based on the peak ratio of each sample, and the calibration curve. Then, the obtained weight was divided by the weight in tumor to calculate the concentration of the test compound in tumor.

[3] = animal 1, read-out: Concentration in plasma, animal 1
[4] = animal 2, read-out: Concentration in plasma, animal 2
[5] = animal 3, read-out: Concentration in plasma, animal 3
[6] = mean of 3, read-out: Concentration in plasma, mean
[7] = animal 1, read-out: Concentration in tumor, animal 1
[8] = animal 2, read-out: Concentration in tumor, animal 2

Compound: CN1CCN(C(=O)c2c(C(F)(F)F)oc3c2C(=O)c2ccccc2C3=O)CC1 [Example 8, 3-(4-Methylpiperazine-1-carbonyl)-2-(trifluoromethyl)naphtho[2,3-b]furan-4,9-dione]
- IC50 (HCT-116 cell): 530 nM
- IC50 (FaDu cell): 500 nM
- IC50 (HT-29 cell): 640 nM
- solubility (Test 3: solubility test; aqueous buffer, pH 7.4 buffer, read-out: Solubility pH 7.4): 138 µg/mL (≈ 352 µM)
- solubility (Test 3: solubility test; simulated gastric fluid, pH 1.2 buffer, read-out: Solubility pH 1.2): 160 µg/mL (≈ 408 µM)
- concentration at 2 hr [1, 3]: 508 ng/mL
- concentration at 2 hr [1, 4]: 473 ng/mL
- concentration at 2 hr [1, 5]: 384 ng/mL
- concentration at 2 hr [1, 6]: 455 ng/mL
- concentration at 6 hr [1, 3]: 351 ng/mL
- concentration at 6 hr [1, 4]: 2800 ng/mL
- concentration at 6 hr [1, 5]: 334 ng/mL
- concentration at 6 hr [1, 6]: 1160 ng/mL
- concentration at 2 hr [2, 7]: 498 ng/mL
- concentration at 2 hr [2, 8]: 260 ng/mL
- concentration at 2 hr ([2]; animal 3, read-out: Concentration in tumor, animal 3): 47 ng/mL
- concentration at 2 hr ([2]; mean of 3, read-out: Concentration in tumor, mean): 268 ng/mL
- concentration at 6 hr [2, 7]: 329 ng/mL
- concentration at 6 hr [2, 8]: 157 ng/mL
